The record followed here is ChEMBL document CHEMBL4340521, “Subtle modifications to a thieno[2,3-d]pyrimidine scaffold yield negative allosteric modulators and agonists of the dopamine D2 receptor” (Eur J Med Chem, 2019).

As usually defined, the pKb is the negative decadic logarithm of the Kb, by convention in mol/L.

Holding throughout (assay type): functional, cell-based
Test [1] deals with T1, D(2) dopamine receptor (Homo sapiens, UniProt P14416). Nature of the test: Negative allosteric modulation of recombinant human D2L receptor expressed in Flp-In CHO cells assessed as inhibition of dopamine-induced reduction in forskolin stimulated cAMP accumulation by measuring equilibrium dissociation constant up to 100 uM preincubated for 30 mins followed by forskolin stimulation and measured after 30 mins by BRET assay. On the technique in general: Cyclic AMP is a second messenger, typically raised through Gs and lowered through Gi signalling.
T1 sequence (P14416 whole entry): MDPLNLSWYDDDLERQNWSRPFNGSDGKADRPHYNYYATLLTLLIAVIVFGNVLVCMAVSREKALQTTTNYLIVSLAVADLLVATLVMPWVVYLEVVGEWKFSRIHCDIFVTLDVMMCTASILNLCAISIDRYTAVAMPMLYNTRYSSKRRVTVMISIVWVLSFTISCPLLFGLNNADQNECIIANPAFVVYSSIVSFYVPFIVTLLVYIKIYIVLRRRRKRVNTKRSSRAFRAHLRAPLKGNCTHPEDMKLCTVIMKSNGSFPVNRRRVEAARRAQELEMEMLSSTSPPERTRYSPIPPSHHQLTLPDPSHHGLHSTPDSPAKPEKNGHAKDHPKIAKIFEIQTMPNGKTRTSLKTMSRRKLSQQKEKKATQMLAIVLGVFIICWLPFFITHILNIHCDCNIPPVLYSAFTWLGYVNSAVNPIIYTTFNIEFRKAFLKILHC

Test [2] deals with T1, D(2) dopamine receptor. Nature of the test: Negative allosteric modulation of recombinant human D2L receptor expressed in Flp-In CHO cells assessed as inhibition of dopamine-induced reduction in forskolin stimulated cAMP accumulation by measuring modulation of dopamine efficacy preincubated for 30 mins followed by forskolin stimulation and measured after 30 mins by BRET assay.

Test [3] addresses T1, D(2) dopamine receptor. In words: Negative allosteric modulation of recombinant human D2L receptor expressed in Flp-In CHO cells assessed as inhibition of dopamine-induced reduction in forskolin stimulated cAMP accumulation by measuring equilibrium dissociation constant preincubated for 30 mins followed by forskolin stimulation and measured after 30 mins by BRET assay.
Test [4] concerns the target T1, D(2) dopamine receptor. In words: Negative allosteric modulation of recombinant human D2L receptor expressed in Flp-In CHO cells assessed as inhibition of dopamine-induced reduction in forskolin stimulated cAMP accumulation by measuring intrinsic efficacy of the modulator preincubated for 30 mins followed by forskolin stimulation and measured after 30 mins by BRET assay.

Test [5] deals with T1, D(2) dopamine receptor. Nature of the test: Negative allosteric modulation of recombinant human D2L receptor expressed in Flp-In CHO cells assessed as inhibition of dopamine-induced reduction in forskolin stimulated cAMP accumulation by measuring net cooperativity factor preincubated for 30 mins followed by forskolin stimulation and measured after 30 mins by BRET assay.

Activity calls are given as the source filed them. The calls are words filed in the database; no cut-off is given here.

Take `CCN(CC)c1ncnc2sc3c(c12)CCCCC3`: the outcome at D(2) dopamine receptor [1] was inactive.
As to `c1nc(NC2CC2)c2c3c(sc2n1)CCC3`, at D(2) dopamine receptor [2], the Efficacy worked out at 0.28 and the log(activity) was -0.55. Besides, on D(2) dopamine receptor [3], the Kb is 6.01 µM and the pKb stood at 5.22. Moreover, at D(2) dopamine receptor [4], the Intrinsic activity came to 0.75 and the log(activity) is -0.13.
For the compound `c1nc(NC2CCC2)c2c3c(sc2n1)CCCCC3`, on D(2) dopamine receptor [2], the Efficacy amounted to 0.06 and the log(activity) is -1.22. In addition, at D(2) dopamine receptor [3], the Kb amounted to 0.91 µM and the negative logarithm of the Kb (pKb) came to 6.04. For the same compound, the log(activity) on D(2) dopamine receptor [4] came to 0.
For the compound `c1nc(NC2CC2)c2ccsc2n1`, the log(activity) on D(2) dopamine receptor [2] is 0. For the same compound, on D(2) dopamine receptor [3], the Kb is 21.4 µM and the negative-log Kb (pKb) was 4.67. For the same compound, at D(2) dopamine receptor [5], the Activity index was 0.22 and the log(activity) is -0.65. Further, at D(2) dopamine receptor [4], the log(activity) is -3.
For `c1nc(NC2CC2)c2c3c(sc2n1)CCCCCC3`, on D(2) dopamine receptor [2], the Efficacy was found to be 0.1 and the log(activity) was -1. In addition, at D(2) dopamine receptor [3], the Kb came to 0.53 µM and the pKb turned out to be 6.27. Also, the log(activity) at D(2) dopamine receptor [4] came to 0.
Turning to `CC(C)(C)Nc1ncnc2sc3c(c12)CCCC3`, at D(2) dopamine receptor [2], the log(activity) amounted to 0. In addition, on D(2) dopamine receptor [3], the Kb is 92.5 µM and the pKb was found to be 4.03. In addition, on D(2) dopamine receptor [5], the Activity index was found to be 0.91 and the log(activity) was -0.04. For the same compound, the log(activity) at D(2) dopamine receptor [4] was determined as 0.
Turning to `c1nc(NC2CCC2)c2c3c(sc2n1)CCCCCC3`, on D(2) dopamine receptor [2], the Efficacy is 0.26 and the log(activity) was -0.58. On D(2) dopamine receptor [3], the Kb amounted to 3.98 µM and the negative-log Kb (pKb) worked out at 5.4. The log(activity) on D(2) dopamine receptor [4] stood at 0.
Turning to `Cc1sc2ncnc(NC3CCC3)c2c1C`, at D(2) dopamine receptor [2], the Efficacy came out at 0.13 and the log(activity) is -0.9. For the same compound, at D(2) dopamine receptor [3], the Kb was determined as 2.88 µM and the negative logarithm of the Kb (pKb) was 5.54.
Consider `c1ccc(-c2cc3c(NC4CCC4)ncnc3s2)cc1`, for which the log(activity) at D(2) dopamine receptor [2] was 0; at D(2) dopamine receptor [5], -0.55; at D(2) dopamine receptor [4] it was 0. In addition, the Kb on D(2) dopamine receptor [3] is 4.5 µM. In addition, the pKb on D(2) dopamine receptor [3] came to 5.35. Moreover, on D(2) dopamine receptor [5], the Activity index came out at 0.28.
For the compound `c1nc(NC2CCCCC2)c2c3c(sc2n1)CCCC3`, the result on D(2) dopamine receptor [1] was inactive.
Turning to `CCN(CC)c1ncnc2sc3c(c12)CCC3`, on D(2) dopamine receptor [2], the Efficacy stood at 0.14 and the log(activity) is -0.85. For the same compound, on D(2) dopamine receptor [3], the Kb turned out to be 0.74 µM and the pKb was 6.13. On D(2) dopamine receptor [4], the log(activity) came out at 0.
Consider `c1nc(NCC2CC2)c2c3c(sc2n1)CCCC3`, for which, at D(2) dopamine receptor [2], the Efficacy stood at 0.29 and the log(activity) was -0.54. In addition, on D(2) dopamine receptor [3], the Kb was 1.19 µM and the pKb worked out at 5.92. Further, at D(2) dopamine receptor [4], the Intrinsic activity was 0.86 and the log(activity) is -0.06.
Consider `Cc1sc2ncnc(NC3CC3)c2c1C`, for which the result at D(2) dopamine receptor [1] was inactive.
As to `c1nc(NC2CCC2)c2c(C3CCCCC3)csc2n1`, on D(2) dopamine receptor [2], the Efficacy came to 0.03 and the log(activity) was -1.55. In addition, on D(2) dopamine receptor [3], the Kb came to 2.92 µM and the pKb came to 5.53. Further, on D(2) dopamine receptor [4], the log(activity) is 0.
Consider `c1nc(NC2CCC2)c2c3c(sc2n1)CCCC3`, for which, on D(2) dopamine receptor [2], the Efficacy was found to be 0.22 and the log(activity) is -0.65. Besides, at D(2) dopamine receptor [3], the Kb was 0.57 µM and the pKb is 6.25. For the same compound, on D(2) dopamine receptor [4], the Intrinsic activity was found to be 0.19 and the log(activity) was -0.72.
As for `CCN(CC)c1ncnc2sc(C3CCCCC3)cc12`, the outcome at D(2) dopamine receptor [1] was inactive.
With `c1ccc(-c2cc3c(NC4CC4)ncnc3s2)cc1`, on D(2) dopamine receptor [2], the Efficacy was found to be 0.43 and the log(activity) is -0.37. Also, on D(2) dopamine receptor [3], the Kb is 6.35 µM and the pKb was determined as 5.92. On D(2) dopamine receptor [4], the Intrinsic activity turned out to be 0.6 and the log(activity) was -0.22.
For `CCN(CC)c1ncnc2sc3c(c12)CCCC3`, the values for the log(activity) at D(2) dopamine receptor [2], at D(2) dopamine receptor [5] and on D(2) dopamine receptor [4] were -3, -3 and 0, respectively. The negative logarithm of the Kb (pKb) at D(2) dopamine receptor [3] turned out to be 5.72.
Regarding `c1ccc(Nc2ncnc3sc4c(c23)CCCC4)cc1`, on D(2) dopamine receptor [1], the outcome was inactive.
